{
  "source": "patent US20120135078A1",
  "about": "“ANGINA TREATMENT” (University of Dindee, priority 2009, published 2012)",
  "key": {"[1]": {"tested_on": "patients with chronic stable angina", "test": "Haemodynamic responses during exercise testing"}, "[2]": {"test": "Serum analysis (biochemical data) in the cross-over study", "format": "in vivo, human", "conditions": "mean ± SD; after allopurinol treatment; p<0.001 vs baseline and placebo", "experimental": "(§1) Eligible participants were then randomised to either allopurinol up to 300 mg BID or matching placebo for 6 weeks. The dose of allopurinol started at 100 mg OD for the first week, 300 mg OD for the second week and 300 mg BID for the remaining treatment period.\n(§2) A p value <0.05 was considered significant."}, "[3]": {"tested_on": "patients with chronic stable angina", "test": "Treadmill exercise tolerance test (full Bruce protocol), randomised double-blind placebo-controlled cross-over study", "format": "in vivo, human", "experimental": "The trial was carried out at Ninewells Hospital, UK. It was approved by the Fife, Forth Valley and Tayside Research Ethics Committee and was conducted in accordance with the Declaration of Helsinki. Signed, written informed consent was obtained from each participant.\nIndividuals aged 18 to 85 years were eligible if they had angiographically documented coronary artery disease, a positive exercise tolerance test (ETT) and a history of symptoms of chronic, stable, effort-induced angina for ≧2 months. Concomitant antianginal medication was allowed.\nExclusion criteria included myocardial infarction ≧2 months, coronary revascularization (percutaneous or CABG) ≧6 months, Left Ventricular Ejection Fraction <45%, estimated GFR <45 ml/min, significant valvular pathology, already on allopurinol, atrial arrhythmias or ECG abnormalities interfering with ST-segment interpretation.\nEligible participants had to manifest ischaemia (ST depression ≧1mm compared to resting ECG) on both visits with a between visit difference in time to ST depression of less than 15%. Otherwise, a third ETT was performed and there had to be a difference of less than 15% between the second and third test.\nas §1\nThe ECG analysis was performed by two independent observers who were both blind to the treatments. The results of each assessment were virtually identical.\nas §2"}, "[4]": {"conditions": "cited from earlier work"}, "angina patients": {"tested_on": "angina patients", "conditions": "references 1-7; cited from earlier work"}, "[5]": {"conditions": "mean ± SD, Stage 1 of Bruce protocol"}, "[6]": {"conditions": "median, after 6 weeks allopurinol up to 300 mg BID (600 mg/day) added to existing anti-anginal medication"}},
  "data": [
    {"smiles": "Oc1ncnc2[nH]ncc12", "note": "[Allopurinol, 1,5-dihydro-4H-pyrazolo[3,4-d]pyrimidin-4-one]", "values": [
      {"measurement": "systolic blood pressure change at the end of the first stage of the Bruce protocol", "setting": "[1]; change from baseline, p=0.026 vs placebo", "value": "−6.1", "unit": "mmHg"},
      {"measurement": "HR Stage 1", "setting": "[1]; [5]", "value": "95.6 ± 13.5", "unit": "bpm"},
      {"measurement": "RPP (Rate Pressure Product) Stage 1", "setting": "[1]; [5]", "value": "12756 ± 2798", "unit": "bpm · mmHg"},
      {"measurement": "dBP Stage 1", "setting": "[1]; [5]", "value": "71.7 ± 10.1", "unit": "mmhg"},
      {"measurement": "sBP Stage 1", "setting": "[1]; [5]", "value": "135.5 ± 19.3", "unit": "mmHg"},
      {"measurement": "HR Peak exercise", "setting": "[1]; mean ± SD, peak exercise", "value": "118.5 ± 15.2", "unit": "bpm"},
      {"measurement": "RPP (Rate Pressure Product) Peak Exercise", "setting": "[1]; mean ± SD, peak exercise", "value": "18842 ± 3791", "unit": "bpm · mmHg"},
      {"measurement": "dBP Peak Exercise", "setting": "[1]; mean ± SD, peak exercise", "value": "75.4 ± 11.9", "unit": "mmhg"},
      {"measurement": "sBP Peak exercise", "setting": "[1]; mean ± SD, peak exercise", "value": "158.7 ± 22.4", "unit": "mmHg"},
      {"measurement": "HR Resting", "setting": "[1]; mean ± SD, resting", "value": "63.8 ± 8.6", "unit": "bpm"},
      {"measurement": "RPP (Rate Pressure Product) Resting", "setting": "[1]; mean ± SD, resting", "value": "7910 ± 1577", "unit": "bpm · mmHg"},
      {"measurement": "dBP Resting", "setting": "[1]; mean ± SD, resting", "value": "72.2 ± 9.9", "unit": "mmhg"},
      {"measurement": "sBP Resting", "setting": "[1]; mean ± SD, resting", "value": "123.7 ± 16.2", "unit": "mmHg"},
      {"measurement": "serum uric acid", "setting": "[2]", "value": "0.14 ± 0.05", "unit": "mmol/L"},
      {"measurement": "absolute increase in median time to ST depression", "setting": "[3]; allopurinol vs baseline", "value": 66, "unit": "s"},
      {"measurement": "increase in median time to ST depression (percent)", "setting": "[3]; allopurinol vs baseline", "value": 28, "unit": "%"},
      {"measurement": "median exercise time higher on allopurinol than on placebo or baseline", "setting": "[3]; difference of medians", "value": "86 to 92", "unit": "s"},
      {"measurement": "median exercise time higher on allopurinol than on placebo or baseline (percent)", "setting": "[3]; difference of medians", "value": 30, "unit": "%"},
      {"measurement": "increase in time to ST depression by geometric mean", "setting": "[3]; geometric mean", "value": 22, "unit": "%"},
      {"measurement": "Time to ST Depression", "setting": "[3]; [6]", "value": 298, "unit": "s"},
      {"measurement": "Total Exercise Time", "setting": "[3]; [6]", "value": 393, "unit": "s"},
      {"measurement": "Time to Symptoms", "setting": "[3]; median, after 6 weeks allopurinol up to 300 mg BID added to existing anti-anginal medication", "value": 304, "unit": "s"},
      {"measurement": "solubility in chloroform and in ether", "setting": "[4]; chloroform, ether", "value": "practically insoluble"},
      {"measurement": "solubility in dilute solutions of alkali hydroxides", "setting": "[4]; dilute solutions of alkali hydroxides", "value": "dissolves"},
      {"measurement": "solubility in water and alcohol", "setting": "[4]; water and alcohol", "value": "only slightly soluble"}
    ]},
    {"smiles": "COc1cc2c(cc1OC)CC(=O)N(CCCN(C)C[C@H]1Cc3cc(OC)c(OC)cc31)CC2", "note": "[ivabradine]", "values": [
      {"measurement": "increase in time to ST depression, comparable published figures", "setting": "angina patients", "value": 46, "unit": "s"},
      {"measurement": "increase in time to ST depression, comparable published figures (percent)", "setting": "angina patients", "value": 13.5, "unit": "%"}
    ]},
    {"smiles": "CC(C)NCC(O)COc1ccc(CC(N)=O)cc1", "note": "(stereo not shown) [atenolol]", "values": [
      {"measurement": "increase in time to ST depression, comparable published figures", "setting": "angina patients", "value": "around 50 seconds"},
      {"measurement": "increase in time to ST depression, comparable published figures (percent)", "setting": "angina patients", "value": 15, "unit": "%"}
    ]},
    {"smiles": "COc1ccccc1OCC(O)CN1CCN(CC(=O)Nc2c(C)cccc2C)CC1", "note": "(stereo not shown) [ranolazine]", "values": [
      {"measurement": "increase in time to ST depression, comparable published figures", "setting": "angina patients", "value": "around 50 seconds"},
      {"measurement": "increase in time to ST depression, comparable published figures (percent)", "setting": "angina patients", "value": 15, "unit": "%"}
    ]}
  ]
}
